Measurements reported in ChEMBL document CHEMBL1201862, “PubChem BioAssay data set” (2004).
Active and inactive are the calls of the source.

What was measured:
cells [1] = assay type: functional, cell-based
[2] = target: Nuclear receptor subfamily 0 group B member 1 (Homo sapiens, UniProt P51843); assay type: functional, cell-based;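 further: HEK293T cells transfected with SF-1 and DAX-1 plus StAR promoter luciferase reporter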
[3] = Late stage assay provider results from the probe development effort to identify inhibitors of the Plasmodium falciparum M18 Aspartyl Aminopeptidase (M18AAP): radiolabel-based cell-based dose response assay to identify compounds that inhibit P. falciparum growth in RBCs, Set 2..; assay type: functional
Paired box protein Pax-8 = Paired box protein Pax-8 (Homo sapiens, UniProt Q06710); test: PAX8 transcriptional activity inhibition in RMG-I – RMG-I cells, luciferase, cherry-pick, dose response (AID 687027); assay type: functional, cell-based;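 further: luciferase reporter driven by Pax8 target thyroperoxidase promoter measured by SteadyGlo luminescence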
Paired box protein Pax-8, sequence (Q06710 whole entry): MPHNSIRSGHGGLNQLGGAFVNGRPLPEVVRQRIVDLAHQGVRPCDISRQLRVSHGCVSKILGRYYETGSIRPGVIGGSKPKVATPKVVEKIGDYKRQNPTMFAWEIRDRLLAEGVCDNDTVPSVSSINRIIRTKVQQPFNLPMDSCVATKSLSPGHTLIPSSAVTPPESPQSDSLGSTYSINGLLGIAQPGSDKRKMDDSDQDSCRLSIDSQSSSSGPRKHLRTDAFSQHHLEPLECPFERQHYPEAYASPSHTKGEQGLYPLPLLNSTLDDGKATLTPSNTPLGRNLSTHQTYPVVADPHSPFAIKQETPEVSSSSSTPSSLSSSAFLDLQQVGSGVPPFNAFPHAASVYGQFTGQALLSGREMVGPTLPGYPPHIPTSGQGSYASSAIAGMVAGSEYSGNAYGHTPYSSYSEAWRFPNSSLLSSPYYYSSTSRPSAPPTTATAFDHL

[4] = inhibitors acting on PAX2 in cells – cell-based, plate reader, dry powder samples, selectivity assay for PAX8 inhibitor project, dose response (AID 743048); assay type: functional;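 further: HEK293 cells carrying a WT1 promoter luciferase reporter driven by expressed Pax2; potency is for inhibition of Pax2 driven reporter signal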
[5] = PAX5 cellular inhibition readout – cell-based, plate reader, dry powder samples, selectivity assay for PAX8 inhibitor project, dose response (AID 743047); assay type: functional;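 further: HEK293 cells carrying a Pax5 driven CD19 promoter luciferase reporter; potency of inhibitors that lower reporter luminescence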
[6] = OVCAR4 cell viability loss – plate reader, dry powder, SA11, cytotoxicity control for PAX8 inhibitor project, dose response (AID 743150); assay type: functional, cell-based; details: OVCAR-4
[7] = COV434 cell viability loss – plate reader, dry powder, SA7, cytotoxicity control for PAX8 inhibitor project, dose response (AID 743145); assay type: functional, cell-based
[8] = OV-90 cell viability loss – plate reader, dry powder, SA8, PAX8 inhibitor project, dose response (AID 743149); assay type: functional, cell-based
[9] = PAX8-dependent cell viability loss – plate reader, dry powder, dose response (AID 743049); assay type: functional, cell-based
[10] = target: Fructose-bisphosphate aldolase (Mycobacterium tuberculosis, UniProt P9WQA3); test: Fluorescence-based biochemical high throughput dose response assay for inhibitors of the fructose-bisphosphate aldolase (FBA) of M. tuberculosis.; assay type: functional
Fructose-bisphosphate aldolase, sequence (P9WQA3 whole entry): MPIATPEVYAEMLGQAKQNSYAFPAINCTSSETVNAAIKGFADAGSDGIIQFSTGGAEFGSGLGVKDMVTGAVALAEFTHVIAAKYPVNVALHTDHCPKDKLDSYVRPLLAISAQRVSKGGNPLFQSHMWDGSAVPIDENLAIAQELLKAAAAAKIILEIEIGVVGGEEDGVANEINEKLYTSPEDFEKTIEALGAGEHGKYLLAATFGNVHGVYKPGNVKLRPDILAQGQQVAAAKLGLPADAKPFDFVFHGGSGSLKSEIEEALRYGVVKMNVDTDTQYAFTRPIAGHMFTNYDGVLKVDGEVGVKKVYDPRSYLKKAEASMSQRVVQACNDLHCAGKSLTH

[11] = target: T1, Delta-type opioid receptor (Homo sapiens, UniProt P41143); test: HTS Image-Based Screen for Antagonists of the DOR Receptor. [Related pubchem assays (depositor defined):AID1777, AID1785, AID1786, AID2133]; assay type: functional
T1 sequence (P41143 whole entry): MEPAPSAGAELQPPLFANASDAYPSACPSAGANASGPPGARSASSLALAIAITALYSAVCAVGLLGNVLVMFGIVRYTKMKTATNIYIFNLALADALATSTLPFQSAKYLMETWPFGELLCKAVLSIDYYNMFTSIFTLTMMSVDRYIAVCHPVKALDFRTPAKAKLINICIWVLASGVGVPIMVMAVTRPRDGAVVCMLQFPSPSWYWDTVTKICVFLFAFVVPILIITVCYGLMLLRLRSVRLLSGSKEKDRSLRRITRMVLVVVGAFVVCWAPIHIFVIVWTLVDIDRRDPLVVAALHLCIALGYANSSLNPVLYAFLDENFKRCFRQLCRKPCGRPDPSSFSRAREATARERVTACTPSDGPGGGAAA

Mu-type opioid receptor = Mu-type opioid receptor (Homo sapiens, UniProt P35372); test: HTS Image-Based Screen for Agonists of the MOR Receptor. [Related pubchem assays (depositor defined):AID1777, AID1785, AID1786, AID2133]; assay type: functional;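 further: imaging of beta-arrestin GFP recruitment into spots after receptor activation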
Mu-type opioid receptor, sequence (P35372 whole entry): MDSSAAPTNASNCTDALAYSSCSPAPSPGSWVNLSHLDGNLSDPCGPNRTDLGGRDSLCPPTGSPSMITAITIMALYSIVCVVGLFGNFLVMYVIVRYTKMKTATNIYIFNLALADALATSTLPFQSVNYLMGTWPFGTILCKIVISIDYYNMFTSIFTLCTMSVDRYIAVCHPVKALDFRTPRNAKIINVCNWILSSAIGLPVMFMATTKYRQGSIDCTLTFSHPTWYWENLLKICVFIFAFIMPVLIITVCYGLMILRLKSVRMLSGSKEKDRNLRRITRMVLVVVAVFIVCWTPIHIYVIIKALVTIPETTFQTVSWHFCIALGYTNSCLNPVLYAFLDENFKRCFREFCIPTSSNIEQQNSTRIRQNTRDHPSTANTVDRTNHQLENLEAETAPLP

[12] = target: T1, Delta-type opioid receptor; test: HTS Image-Based Screen for Agonists of the DOR Receptor. [Related pubchem assays (depositor defined):AID1777, AID1786, AID2133]; assay type: functional
[13] = target: T2, Kappa-type opioid receptor (Homo sapiens, UniProt P41145); assay type: functional
T2 sequence (P41145 whole entry): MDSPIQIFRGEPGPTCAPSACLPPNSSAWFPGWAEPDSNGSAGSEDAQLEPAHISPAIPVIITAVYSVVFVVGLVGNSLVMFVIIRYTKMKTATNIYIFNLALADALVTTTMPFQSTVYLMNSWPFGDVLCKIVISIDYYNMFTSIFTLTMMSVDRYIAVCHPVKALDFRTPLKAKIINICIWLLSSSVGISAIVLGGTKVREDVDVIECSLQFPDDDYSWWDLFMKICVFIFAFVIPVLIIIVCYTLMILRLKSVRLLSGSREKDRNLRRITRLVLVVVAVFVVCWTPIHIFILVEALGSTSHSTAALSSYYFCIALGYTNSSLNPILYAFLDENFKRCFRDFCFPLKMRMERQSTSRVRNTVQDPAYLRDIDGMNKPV

Beta-galactosidase [14] = target: T3, Beta-galactosidase (Escherichia coli, UniProt Q8VNN2); assay type: functional
T3 sequence (Q8VNN2 whole entry): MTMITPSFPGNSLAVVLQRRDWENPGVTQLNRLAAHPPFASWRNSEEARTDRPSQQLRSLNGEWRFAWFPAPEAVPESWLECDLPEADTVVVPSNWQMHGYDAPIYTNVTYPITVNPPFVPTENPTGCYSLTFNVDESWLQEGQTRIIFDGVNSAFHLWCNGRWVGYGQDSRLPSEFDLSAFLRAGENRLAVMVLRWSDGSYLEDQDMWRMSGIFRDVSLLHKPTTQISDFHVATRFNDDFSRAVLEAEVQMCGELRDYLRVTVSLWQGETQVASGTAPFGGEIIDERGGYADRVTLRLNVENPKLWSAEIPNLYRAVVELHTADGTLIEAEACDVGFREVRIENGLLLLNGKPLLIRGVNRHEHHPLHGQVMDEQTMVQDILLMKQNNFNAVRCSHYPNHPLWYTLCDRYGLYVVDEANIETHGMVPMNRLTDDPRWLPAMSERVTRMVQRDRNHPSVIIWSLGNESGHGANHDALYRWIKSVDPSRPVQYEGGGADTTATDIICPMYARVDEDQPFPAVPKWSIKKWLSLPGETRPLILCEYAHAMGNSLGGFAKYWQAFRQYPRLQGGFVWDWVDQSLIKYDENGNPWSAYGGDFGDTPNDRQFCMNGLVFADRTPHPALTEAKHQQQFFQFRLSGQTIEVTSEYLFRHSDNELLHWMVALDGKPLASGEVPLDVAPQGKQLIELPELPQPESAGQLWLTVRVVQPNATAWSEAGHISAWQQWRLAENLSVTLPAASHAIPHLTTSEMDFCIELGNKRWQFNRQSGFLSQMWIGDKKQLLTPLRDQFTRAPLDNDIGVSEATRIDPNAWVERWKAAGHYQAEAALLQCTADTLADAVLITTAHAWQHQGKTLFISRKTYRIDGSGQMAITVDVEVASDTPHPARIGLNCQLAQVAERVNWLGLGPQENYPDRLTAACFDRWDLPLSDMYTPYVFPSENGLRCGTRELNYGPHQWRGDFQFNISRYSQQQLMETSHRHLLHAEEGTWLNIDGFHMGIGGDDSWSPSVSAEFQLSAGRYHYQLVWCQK

[15] = target: T2, Kappa-type opioid receptor; assay type: functional; remark: listed apart in the source
[16] = target: SWI/SNF-related matrix-associated actin-dependent regulator of chromatin subfamily A member 2 (Homo sapiens, UniProt P51531); test: Luminescence-based cell-based high throughput dose response assay to identify activators of the function of SWI/SNF related, matrix associated, actin dependent regulator of chromatin, subfamily a, member 2 (SMARCA2, BRM).; assay type: functional
[17] = Counterscreen for activators of the function of SWI/SNF related, matrix associated, actin dependent regulator of chromatin, subfamily a, member 2 (SMARCA2, BRM): Luminescence-based cell-based high throughput dose response assay to identify non-selective compounds using the VP16 reporter assay.; assay type: functional
[18] = toxicity toward immortalized ovarian surface epithelium – cell-based, plate reader, dry powder samples, cytotoxicity control for PAX8 inhibitor project, dose response (AID 743045); assay type: functional
[19] = A2780 cell killing – plate reader, dry powder samples, cytotoxicity control, dose response (AID 743046); assay type: functional, cell-based
[20] = OVCAR-3 cell viability loss – plate reader, dry powder samples, PAX8 inhibitor project, dose response (AID 743044); assay type: functional, cell-based
[21] = OVCAR8 cell viability loss – plate reader, dry powder samples, PAX8 project, dose response (AID 743197); assay type: functional, cell-based; details: OVCAR-8
[22] = target: DNA dC->dU-editing enzyme APOBEC-3A (Homo sapiens, UniProt P31941); test: Dose Response confirmation of small molecule APOBEC3A DNA Deaminase Inhibitors via a fluorescence-based single-stranded DNA deaminase assay. [Related pubchem assays (depositor defined):AID493011, AID493024]; assay type: functional
DNA dC->dU-editing enzyme APOBEC-3A, sequence (P31941 whole entry): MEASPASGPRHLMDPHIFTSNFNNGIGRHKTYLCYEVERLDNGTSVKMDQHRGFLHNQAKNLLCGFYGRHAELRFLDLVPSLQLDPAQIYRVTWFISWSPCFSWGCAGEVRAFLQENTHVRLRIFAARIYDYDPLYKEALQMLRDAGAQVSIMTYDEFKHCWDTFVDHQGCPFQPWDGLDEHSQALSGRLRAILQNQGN

[23] = target: DNA dC->dU-editing enzyme APOBEC-3G (Homo sapiens, UniProt Q9HC16); assay type: functional;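 further: Dose-response counterscreen measuring inhibition of APOBEC3G DNA deaminase activity, run while confirming APOBEC3A inhibitors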
Beta-galactosidase [24] = target: T3, Beta-galactosidase; test: Dose response counterscreen for EBI2 assay utilizing the enzyme, b-galactosidase.; assay type: functional
[25] = Luminescence Cell-Based Dose Confirmation HTS to Identify Activators of 5'UTR Stem-Loop Driven Alpha-Synuclein mRNA Translation in H4 Neuroglioblastoma Cells. [Related pubchem assays: 1829 (Project Summary), 1814 (Primary HTS)]; assay type: functional
[26] = Luminescence Cell-Based Dose Response HTS to Identify Activators of Luciferase Translation or Activity in H4 […] Cells. [Related pubchem assays: 1829 (Project Summary), 1814 (Primary HTS)]; assay type: functional
H4 = test: Luminescence Cell-Based Dose Response HTS to Identify Activators of 5'UTR Stem-Loop Driven Prion Protein mRNA Translation in H4 Neuroglioblastoma Cells. [Related pubchem assays: 1829 (Project Summary), 1814 (Primary HTS)]; assay type: functional; details: Homo sapiens
[27] = target: T4, Heat shock factor protein 1 (Mus musculus, UniProt P38532); test: decrease of HSF1-responsive luciferase luminescence – cell-based, NIH3T3, dose retest, confirmation (AID 2382); assay type: functional;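 further: NIH3T3 fibroblasts with HSF1-driven luciferase reporter stressed by proteasome inhibitor MG132; luminescence from HSF1-driven luciferase expression after 8 hours of MG132 stress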
T4 sequence (P38532 whole entry): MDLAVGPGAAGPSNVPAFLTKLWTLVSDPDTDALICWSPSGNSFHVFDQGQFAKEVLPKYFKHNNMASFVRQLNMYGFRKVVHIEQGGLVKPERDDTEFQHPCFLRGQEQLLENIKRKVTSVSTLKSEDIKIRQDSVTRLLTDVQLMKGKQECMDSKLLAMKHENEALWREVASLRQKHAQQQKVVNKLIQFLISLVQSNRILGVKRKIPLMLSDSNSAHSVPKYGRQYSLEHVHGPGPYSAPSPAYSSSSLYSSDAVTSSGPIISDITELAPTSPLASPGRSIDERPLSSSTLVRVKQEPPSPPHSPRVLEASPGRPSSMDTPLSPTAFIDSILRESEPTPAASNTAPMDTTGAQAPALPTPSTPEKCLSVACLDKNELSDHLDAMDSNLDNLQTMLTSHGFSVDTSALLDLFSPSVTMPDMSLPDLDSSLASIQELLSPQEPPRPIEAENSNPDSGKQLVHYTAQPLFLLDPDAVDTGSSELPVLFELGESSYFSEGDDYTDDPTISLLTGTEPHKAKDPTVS

[28] = A549 cell cytotoxicity, dose response, cytotoxicity control, plate reader, cherry-pick, antagonist series (AID 743412); assay type: functional, cell-based
[29] = blockers of bursicon-stimulated LGR2 cAMP reporter – cell-based, HEK293, CRE-luciferase reporter, cherry pick, set 2, dose response (AID 743343); assay type: functional;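 further: transfected cells were stimulated with diluted bursicon conditioned medium after compound addition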
[30] = blockade of melanocortin 4 receptor signaling – cell-based, plate reader, cherry pick, counter-screen for LGR2 antagonist project, dose response (AID 743444); assay type: functional;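 further: transfected HEK 293 cells stimulated with alpha-MSH peptide; potency of inhibitors of the alpha-MSH evoked signal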
[31] = viability loss in HEK293 cells – cell-based, plate reader, cherry-picked samples, cytotoxicity control, dose response (AID 743446); assay type: functional
cells [32] = assay type: functional, cell-based; remark: listed apart in the source
[33] = target: T5, Trace amine-associated receptor 1 (Homo sapiens, UniProt Q96RJ0); test: Fluorescence-based cell-based high throughput dose response assay to identify agonists of the human trace amine associated receptor 1 (TAAR1).; assay type: functional
T5 sequence (Q96RJ0 whole entry): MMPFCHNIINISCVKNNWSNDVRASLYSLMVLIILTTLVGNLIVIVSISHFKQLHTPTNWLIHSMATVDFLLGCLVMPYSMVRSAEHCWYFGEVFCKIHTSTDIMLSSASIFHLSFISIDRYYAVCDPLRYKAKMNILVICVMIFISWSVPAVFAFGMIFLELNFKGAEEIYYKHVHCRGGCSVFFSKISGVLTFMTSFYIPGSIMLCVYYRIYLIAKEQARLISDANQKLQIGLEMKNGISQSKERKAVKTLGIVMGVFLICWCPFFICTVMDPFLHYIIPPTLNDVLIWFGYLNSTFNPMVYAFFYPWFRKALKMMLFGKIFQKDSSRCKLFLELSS

[34] = target: T5, Trace amine-associated receptor 1; test: Counterscreen for agonists of the human trace amine associated receptor 1 (hTAAR1): Fluorescence-based cell-based high throughput dose response assay to identify hTAAR1 agonist that also desensitize TAAR1 receptor response.; assay type: functional
cells [35] = assay type: functional, cell-based; remark: listed apart in the source
[36] = potency of ADAM10 substrate cleavage blockers – biochemical, QFRET, dose response (AID 743254);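 further: ADAM10 enzyme with the DM2 quenched FRET peptide as substrate; EDANS fluorescence gain as the protease cuts the substrate; inhibitor potency against ADAM10 proteolytic activity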
[37] = HGIII-sPLA2 enzyme inhibition potency – biochemical, QFRET, IC50, dose response (AID 743457);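 further: green fluorescence rise as the enzyme cleaves BODIPY PC-A2 in liposomes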
[38] = target: Disintegrin and metalloproteinase domain-containing protein 17 (Homo sapiens, UniProt P78536); test: inhibition of ADAM17 substrate cleavage – biochemical, quenched FRET substrate, counter-screen for ADAM10 exosite inhibitor project, dose response (AID 743253)
Disintegrin and metalloproteinase domain-containing protein 17, sequence (P78536 whole entry, the tested form may be a part): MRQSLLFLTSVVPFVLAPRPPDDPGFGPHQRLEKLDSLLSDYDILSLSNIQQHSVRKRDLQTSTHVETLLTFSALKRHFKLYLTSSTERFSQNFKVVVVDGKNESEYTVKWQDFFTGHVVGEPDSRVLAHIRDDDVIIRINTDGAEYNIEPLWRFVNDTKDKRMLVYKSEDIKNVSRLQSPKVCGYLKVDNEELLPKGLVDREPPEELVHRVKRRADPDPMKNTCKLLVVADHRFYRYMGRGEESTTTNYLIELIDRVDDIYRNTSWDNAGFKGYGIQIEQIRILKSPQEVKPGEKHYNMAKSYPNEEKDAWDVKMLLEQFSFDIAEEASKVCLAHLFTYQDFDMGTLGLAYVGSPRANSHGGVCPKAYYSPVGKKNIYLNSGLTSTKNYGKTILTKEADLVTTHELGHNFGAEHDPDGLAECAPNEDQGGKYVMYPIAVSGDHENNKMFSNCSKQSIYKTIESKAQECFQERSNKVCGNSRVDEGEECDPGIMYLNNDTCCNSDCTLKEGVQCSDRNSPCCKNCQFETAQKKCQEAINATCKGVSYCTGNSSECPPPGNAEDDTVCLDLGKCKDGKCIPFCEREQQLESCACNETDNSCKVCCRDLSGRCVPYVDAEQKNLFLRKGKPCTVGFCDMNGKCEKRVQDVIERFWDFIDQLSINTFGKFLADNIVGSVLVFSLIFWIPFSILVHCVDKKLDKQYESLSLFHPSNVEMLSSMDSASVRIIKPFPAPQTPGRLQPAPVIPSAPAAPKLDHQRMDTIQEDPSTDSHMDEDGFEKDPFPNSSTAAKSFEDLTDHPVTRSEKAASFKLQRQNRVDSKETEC

[39] = Trypanosoma cruzi growth suppression in host cells – NIH3T3 host cells, beta-gal luminescence, confirmation (AID 2044); assay type: functional, cell-based;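 further: intracellular parasites grown in NIH/3T3 mouse fibroblasts as host cells; luminescent beta-galactosidase reporter signal from transgenic T. cruzi replicating inside host cells; inhibitors lower the luminescence signal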
[40] = NIH3T3 cell viability loss – ATP luminescence, mouse fibroblasts, counter-screen, dose response (AID 2010); assay type: functional, cell-based;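 further: cells exposed to compound for about 90 hours before reading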
[41] = Luminescence Cell-Based Dose Retest to Confirm Inhibitors of Cancer Stem Cells. [Related pubchem assays (depositor defined):AID2717, AID2721]; assay type: functional; details: Homo sapiens
[42] = target: DNA repair protein RAD52 homolog (Homo sapiens, UniProt P43351); assay type: functional, biochemical
DNA repair protein RAD52 homolog, sequence (P43351 whole entry): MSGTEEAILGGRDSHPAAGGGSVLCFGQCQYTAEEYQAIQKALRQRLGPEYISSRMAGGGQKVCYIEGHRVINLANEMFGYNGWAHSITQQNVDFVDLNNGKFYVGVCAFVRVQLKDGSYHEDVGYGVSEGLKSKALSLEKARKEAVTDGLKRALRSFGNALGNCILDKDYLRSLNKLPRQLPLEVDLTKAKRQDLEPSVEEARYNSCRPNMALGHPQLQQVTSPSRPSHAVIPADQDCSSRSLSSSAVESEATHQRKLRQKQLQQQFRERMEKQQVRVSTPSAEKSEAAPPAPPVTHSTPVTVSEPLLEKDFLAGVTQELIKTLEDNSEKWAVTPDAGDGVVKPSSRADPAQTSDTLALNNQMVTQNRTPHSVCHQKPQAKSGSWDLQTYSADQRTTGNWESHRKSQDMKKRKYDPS

Melanocortin receptor 4 = Melanocortin receptor 4 (Homo sapiens, UniProt P32245); assay type: functional, cell-based;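 further: Cell-based assay with luminescence read-out, confirmatory dose-response testing for agonist activity of biased ligands at MC4R; human U2OS cells with tagged receptor and beta-arrestin; potency of agonists that increase receptor coupling to beta-arrestin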
fMet-Leu-Phe receptor = fMet-Leu-Phe receptor (Homo sapiens, UniProt P21462); test: formyl peptide receptor binders – dose response (AID 519); assay type: functional
Cytochrome P450 3A4 = Cytochrome P450 3A4 (Homo sapiens, UniProt P08684);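 further: CYP3A4 tested as one member of a cytochrome P450 panel screen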

Nuclear receptor subfamily 0 group B member 1, sequence (P51843 whole entry): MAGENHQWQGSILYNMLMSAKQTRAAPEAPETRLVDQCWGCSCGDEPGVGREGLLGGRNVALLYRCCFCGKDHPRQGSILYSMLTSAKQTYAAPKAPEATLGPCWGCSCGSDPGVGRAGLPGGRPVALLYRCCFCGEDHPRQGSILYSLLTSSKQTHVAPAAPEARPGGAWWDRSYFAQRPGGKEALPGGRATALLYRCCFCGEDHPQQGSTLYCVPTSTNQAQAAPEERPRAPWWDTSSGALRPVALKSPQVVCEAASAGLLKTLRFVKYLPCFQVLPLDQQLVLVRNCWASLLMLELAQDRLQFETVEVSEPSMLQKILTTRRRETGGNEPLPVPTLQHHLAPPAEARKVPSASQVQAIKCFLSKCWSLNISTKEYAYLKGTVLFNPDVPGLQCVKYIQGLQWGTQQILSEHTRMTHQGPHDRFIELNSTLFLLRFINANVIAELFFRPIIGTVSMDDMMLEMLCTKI

CCOc1ccc(NC(=O)c2ccc3c(c2)N(C)CCS3)cc1
IC50 (cells [1]): > 67.6 µM (inactive) | IC50 [2]: > 67.6 µM (inactive)

CCOc1ccc2nccc(NCCc3ccc(OC)c(OC)c3)c2c1
IC50 [3]: 1.4 µM (active)

N#C[C@@H]1[C@H](c2ccc(C#CC3CCCCC3)cc2)[C@H](CO)N1S(=O)(=O)c1ccccc1
AC50 (Paired box protein Pax-8): 11.1 µM (active) | AC50 [4]: > 32 µM (inactive) | AC50 [5]: 29.9 µM (active) | AC50 [6]: > 70 µM (inactive) | AC50 [7]: 36.6 µM (active) | AC50 [8]: 22.2 µM (active) | AC50 [9]: 25.6 µM (active)

CCOC(=O)c1c(SCC(=O)Nc2nccs2)nc(C)c(C)c1C
IC50 (cells [1]): > 67.5 µM (inactive) | IC50 [2]: > 67.5 µM (inactive)

C(=C\c1ccc2nncn2c1)/c1ccccc1
IC50 [10]: 1.45 µM (active)

COc1ccc(-c2cc(=O)n(-c3nc4ccccc4[nH]3)[nH]2)cc1
IC50 [11]: > 32 µM (inactive) | EC50 (Mu-type opioid receptor): > 32 µM (inactive) | EC50 [12]: > 32 µM (inactive) | IC50 [13]: 9.08 µM (active) | EC50 (Beta-galactosidase [14]): > 31.5 µM (inactive) | IC50 [15]: > 32 µM | EC50 [16]: > 91.2 µM (inactive) | EC50 [17]: > 91.2 µM (inactive)

C[C@H]1CCCCO[C@@H](CN(C)Cc2ccc(C(F)(F)F)cc2)[C@@H](C)CN([C@@H](C)CO)C(=O)c2cc(NS(=O)(=O)c3ccc(Cl)cc3)ccc2O1
AC50 (Paired box protein Pax-8): 4.39 µM (active) | AC50 [18]: 36.4 µM (active) | AC50 [19]: 0.528 µM (active) | AC50 [20]: 11 µM (active) | AC50 [21]: 19.7 µM (active)

COc1ccccc1CCNC(=O)C1CCN(C(=O)/C=C/c2ccccc2)CC1
IC50 [22]: 13.9 µM (active) | IC50 [23]: 14.6 µM (active) | IC50 (Beta-galactosidase [24]): > 80 µM (inactive)

CN(C(=O)COC(=O)c1nc(Cl)c(Cl)c(Cl)c1Cl)C1CCS(=O)(=O)C1 (stereo not given)
EC50 [25]: > 120 µM (not active) | EC50 [26]: > 120 µM (not active) | EC50 (H4): > 120 µM (not active) | EC50 [27]: 13.1 µM (active) | AC50 [28]: 7.97 µM (active) | AC50 [29]: 15.8 µM (active) | AC50 [30]: 22.7 µM (active) | AC50 [31]: 6.09 µM (active)

COC(=O)[C@]12CCCCC=C1N(Cc1ccccc1)C(=O)[C@H](CC(=O)NCCc1ccccc1OC)C2
IC50 (cells [32]): 27.7 µM (inactive) | EC50 [33]: 2.49 µM (active) | IC50 [34]: 4.83 µM (active) | EC50 (cells [35]): > 29.9 µM (inactive)

CCN(CC)c1ccc(NC(=O)CSc2nc3ccccc3c(=O)n2-c2ccc(C)cc2)cc1
IC50 [36]: > 69.5 µM (inactive) | IC50 [37]: 60.3 µM (inactive) | IC50 [38]: > 69.5 µM (inactive)

Cc1cc(N2CCN(C)CC2)nc2ccc(NC(S)=NCCC(C)C)cc12
EC50 [39]: 0.746 µM (active) | EC50 [40]: 8.05 µM (active) | AC50 [41]: 1.24 µM (active) | AC50 [42]: 28.2 µM (active)

CC(=O)Nc1cc(-c2ccc(N(C)C)cc2)cn2c(-c3ccc(F)cc3)cnc12
EC50 (Melanocortin receptor 4): > 9.91 µM (active) | IC50 (Beta-galactosidase [24]): > 80 µM (inactive)

Nc1cc(N)c2c(c1)C(=O)c1ccccc1-2
IC50 [37]: > 122 µM (inactive)

O=C1NC(=O)c2cc(NC(=O)C3CCCO3)ccc21 (stereo not given)
IC50 [10]: 2.39 µM (active)

COCCCN1C(=O)C(O)=C(C(=O)c2ccc(OC)cc2C)C1c1cccnc1 (stereo not given)
Ki (fMet-Leu-Phe receptor): > 66.7 µM (inactive) | AC50 (Cytochrome P450 3A4): 20 µM (inconclusive)

Oc1ccc(CCNc2ccnc3cc(Cl)ccc23)cc1O
IC50 [3]: 0.62 µM (active)
